Reference: article PMC10511495, “Dermato-cosmeceutical properties of Pseudobombax ellipticum (Kunth) Dugand: Chemical profiling, in vitro and in silico studies” (Saudi Pharmaceutical Journal : SPJ, 2023)

How the values were obtained:
[1] = molecular target: T1, Collagenase from Clostridium histolyticum (ChC); assay: FALGPA hydrolysis, absorbance at […] nm; format: biochemical, Hathewaya histolytica; details: 2 mM FALGPA solution; 50 mM Tricine, 400 mM NaCl, 10 mM CaCl2, pH 7.5; 15 min preincubation
T1 construct: gene colG; docking used another collagenase (MMP)

[2] = molecular target: T2, Porcine pancreatic elastase (Sus scrofa, UniProt P00772); assay: chromogenic peptide hydrolysis, absorbance at […] nm; format: biochemical; details: 0.8 mM N-succinyl-Ala-Ala-Ala-p-nitroanilide; 15 min preincubation
T2 construct: gene CELA1; native pancreatic enzyme preparation; docking used another elastase (Zn metalloprotease, MMP12)
T2 sequence (P00772 27-266): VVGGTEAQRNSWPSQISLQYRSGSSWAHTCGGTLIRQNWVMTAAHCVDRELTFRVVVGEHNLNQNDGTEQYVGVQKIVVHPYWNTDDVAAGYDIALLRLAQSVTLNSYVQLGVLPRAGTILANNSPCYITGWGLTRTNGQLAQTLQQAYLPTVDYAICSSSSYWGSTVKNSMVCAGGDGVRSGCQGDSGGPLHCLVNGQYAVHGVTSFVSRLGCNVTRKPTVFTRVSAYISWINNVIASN

Parameter / Elastase [2] | SMILES | Parameter / Collagenase [1]
– | O=c1c(O)c(-c2ccc(O)c(O)c2)oc2cc(O)cc(O)c12 [Quercetin] | 24.83 ± 1.8 µg/mL
21.60 ± 0.9 µg/mL | O=c1cc(CO)occ1O [Kojic acid] | –
